Test results from patent US20140100290A1, “Method of treating a prostate condition” (priority 2012, published 2014).

System: PARP cleavage in LNCaP cells
Experiment: Western blot analysis of PARP cleavage in LNCaP cells
Format: cell-based, Human
Settings: 48 h treatment
Procedure: Human metastatic prostate cancer cells, LNCaP, were obtained from ATCC (Manassas, Va., USA). Cells were grown in RPMI-1640 medium supplemented with 2mM glutamine, 10% FBS, 100 U/mL penicillin, and 100 μg/mL streptomycin. LNCaP cells were maintained in a humidified atmosphere of 5% CO2 at 37° C. in T-75 flasks and were subcultured when confluent. Experiments were conducted using cells with passage numbers ranging from 5-20.
Western blotting is a widely used analytical technique for detection of specific proteins separated from one another, according to their size, by gel electrophoresis. Application of an electric current induces proteins on the gel to move on to the membrane (nitrocellulose or PVDF) placed next to it. Proteins on the gel get transferred on to the membrane which is subsequently stained with the antibody. Once detected, the target protein will be visualized as a band on a blotting membrane, X-ray film, or an imaging system. […]
After maintaining constant agitation at 4° C. for 30 minutes, lysates were collected in microcentrifuge tubes and centrifuged at 12,000 rpm at 4° C. for 20 minutes. […] Protein concentration was determined using the Pierce® BCA protein assay kit. […] Western blot images are representative of at least 3 independent experiments, while quantification data represent mean±S.E.M. of n>3 experiments.

SMILES: Cc1ccc(C(C)C)cc1O [Carvacrol]
- cleavage of PARP (Western blot): demonstrated cleavage of PARP
